Paper PMC8279981, “A first-in-human, phase 1 study of the NEDD8 activating enzyme E1 inhibitor TAS4464 in patients with advanced solid tumors” (Investigational New Drugs, 2021)

Experiments:
[1] = Plasma pharmacokinetics of TAS4464 in patients; format: in vivo, human
Protocol: (§1) The PK endpoints included maximum plasma concentration (Cmax), area under the concentration–time curve from time zero up to the last observable concentration (AUC0-last) and plasma accumulation of TAS4464 after multiple doses. PK parameters were evaluated on Day 1 of Cycle 1 and Day 15 of Cycle 1 in the weekly dosing cohort, as well as on Day 1 of the lead-in period and Day 1 of Cycle 1 in the weekly with lead-in dosing cohort. The evaluation of the relationship between solute carrier organic anion transporter family member 1B1 (SLCO1B1) genetic polymorphisms and PK (i.e., the mean and individual clearance [CL] and volume of distribution at steady-state [Vdss] by each OATP1B1 phenotype) was assessed as the PGx analysis endpoint.
The analysis populations included in the study are summarized in the Supplementary Appendix. DLTs were recorded by incidence and 95% confidence intervals (CI). Median PFS and 95% CIs were calculated using Kaplan–Meier methodology. Best overall response was tabulated, and the ORR and DCR with 95% CIs were calculated by dose level. PK parameters were evaluated using non-compartmental methods. For the pharmacodynamic parameter of cullin-NEDD8 in PBMC, summary statistics and a scatter plot of the percentage change from baseline were produced. Missing data were not imputed. […] SAS software v9.4 (SAS Institute Inc., Cary NC, USA) was used for all statistical processing.

[2] = test system: OATP1B1; assay: Pharmacogenomics: SLCO1B1 polymorphisms versus PK; format: in vivo, human; settings: phenotype assigned by SLCO1B1 genotypes; data not shown
Protocol: as §1

[3] = test system: NAE; settings: compared with MLN4924; cited from earlier work
[4] = test system: hematologic and solid tumor xenograft models; settings: cited from earlier work
[5] = plasma, multiple doses, data not shown

SMILES: CCOc1cccc(F)c1C#Cc1cn([C@@H]2O[C@H](CNS(N)(=O)=O)[C@@H](O)[C@H]2O)c2ncnc(N)c12 [TAS4464]
- dose dependence of Cmax and AUC ([1]; dose range of 10–56 mg/m^2): generally increased with increasing dose
- accumulation ratio of AUC0-last [R (AUC0-last)] [1, 5]: ~1.0
- accumulation ratio of Cmax [R (Cmax)] [1, 5]: ~1.0
- mean and individual CL and Vdss by OATP1B1 phenotype [2]: no obvious differences were observed
- inhibitory effects in enzyme assays [3]: greater inhibitory effects than MLN4924
- antitumor effects ([4]; several hematologic and solid tumor xenograft models): promising antitumor effects
- weight loss ([4]; xenograft models): without notable weight loss
